Results: PMC9862800, “Pharmaceutical Systems as a Strategy to Enhance the Stability of Oxytetracycline Hydrochloride Polymorphs in Solution” (Pharmaceutics, 2023)
Counter-ions that a name gives are not always drawn.

Assays:
[1] = design: method as in doi:10.1016/j.molliq.2017.12.006; conditions: incorporated into β-CD cavity; hydrolytic degradation; cited from earlier work
[2] = Chemical stability (degradation kinetics) in PBS by HPLC; assay type: physicochemical; conditions: 25.0 ± 0.1 °C; for k0, intrinsic rate constant of degradation of the free polymorph: PBS (pH 7.4), light protection, 30 µg/mL
Procedure: (§1) The kinetics of degradation of OxyCl polymorphs both in the presence and absence of ligands were investigated in the aqueous solutions and PBS.
(§2) Stock solutions of each solid form, as well as each ligand β-CD, ASP, and NAC, were prepared. These stock solutions were diluted to a final concentration of 30 µg/mL in water and PBS solutions to prepare the test solutions. The solutions containing ligands were prepared in the molar ratio of 1:1. These solutions were stored with light protection in order to diminish any photolytic effects in a water bath at a constant temperature of 25.0 ± 0.1 °C. Samples were withdrawn at appropriate time intervals and immediately analyzed by HPLC. The observed pseudo first-order rate constants (kobs) for the OxyCl polymorphs degradation were obtained from a linear regression analysis of the natural logarithm of the remaining solid forms plotted against time.
(§3) An HPLC-UV procedure under isocratic conditions was optimized. The results were expressed as the mean of the three determinations of samples prepared in duplicate. The HPLC system was an Agilent 1100 (Agilent Technologies, Waldbronn, Germany) equipped with a column Gemini C18 250 mm × 4.6 mm i.d. filled with 5 μm particles and a precolumn (guard cartridge SecurityGuard C18 4 mm × 3.0 mm i.d.) supplied by Phenomenex (Phenomenex Inc., Torrance, CA, USA). To avoid interference from degradation products, the UV detection was performed at a wavelength of 355 nm. The mobile phase was acetonitrile-water adjusted to a pH of 3 with phosphoric acid (20:80, v/v), and a flow rate of 1 mL/min was used. The column temperature was 25 °C and the injection volume was 50 µL.
(§4) Furthermore, linear regression analysis was used to estimate the intrinsic rate constant of degradation of the free OxyCl polymorphs (k0), the observed rate constant of OxyCl polymorphs in the presence of ligands (kobs), the half-life (t50), and the time of 10% degradation of the drug (t90).
The degradation plots were linear, indicating apparent first-order kinetics. […] It was observed that OxyCl-I degraded at a faster rate than OxyCl-II and OxyCl-III, with a degradation rate of OxyCl-II < OxyCl-III < OxyCl-I.

[3] = Chemical stability (degradation kinetics) in aqueous solution by HPLC; assay type: physicochemical; conditions: 25.0 ± 0.1 °C; for k0, intrinsic rate constant of degradation of the free polymorph: light protection, 30 µg/mL
Procedure: as §1, §2, §3
It is important to mention that the results presented in these studies represent the first report about OxyCl polymorphs stability. The degradation curves of each OxyCl polymorph and its binary systems with β-CD, NAC, and ASP in an aqueous solution, under identical experimental conditions, were compared. […] The kinetic parameters, which are important in the pharmaceutical sector, were determined using a first-order reaction model that could be expressed by the following equation:ln Ct = […] − k t(8) where Ct and C0 were the concentrations of OxyCl at different reaction times and at the initial time, respectively, k was the degradation rate constant, and t was time. As a result, the slope of the fitted lines could be used to determine k.
as §4

[4] = Apparent binding constant by UV-vis spectroscopy, Scott's plot, ligand ASP; assay type: physicochemical; conditions: aqueous solution; absorption at 355 nm; Scott's equation, 1:1 stoichiometry; OxyCl 0.068 mM, ligand 0.068 to 10 mM
Procedure: (§5) UV-vis data were used to calculate the association or binding constants (Ka) of OxyCl polymorphs with each ligand in an aqueous solution by different treatment analyses. The concentration of OxyCl was kept constant (0.068 mM), while the concentration of ligands increased from 0.068 to 10 mM.
(§6) Ka values were determined by applying the formula of Benesi–Hildebrandt, adjusted by Scott utilized for a complex of 1:1 stoichiometry:(1) [L]/ΔAobs=[L]/ΔAc+1/Ka×ΔAc where [L] is the molar concentration of the ligand, ∆Aobs is the variation in the absorbance observed for the OxyCl solid form for a given [L], ΔAc is the variation in the absorbance between the complex and the free solid form.
(§7) The association constant (Ka) for the formation of binary systems was estimated from changes in the intensity of the absorption at 355 nm with increasing ligand concentration using double reciprocal plots of Scott´s equation. […] However, deviations in straight lines were detected for the binary systems with NAC, which determined it was impossible to calculate an association constant assuming this model. To determine the Ka for OxyCl:NAC systems, a model matrix that applied least-squares techniques for the linear transformation of the data was used.

[5] = Apparent binding constant by UV-vis spectroscopy, Scott's plot, ligand HIS; assay type: physicochemical; conditions: aqueous solution; absorption at 355 nm; Scott's equation, 1:1 stoichiometry; OxyCl 0.068 mM, ligand 0.068 to 10 mM
Procedure: as §5, §6, §7

[6] = Apparent binding constant by UV-vis spectroscopy, least-squares model matrix, ligand NAC; assay type: physicochemical; conditions: aqueous solution; absorption at 355 nm; model matrix with least-squares linear transformation; OxyCl 0.068 mM, ligand 0.068 to 10 mM
Procedure: as §5
Another model for measuring binding constants in data analysis utilizes least-squares analysis. The general approach is to use the linear regression method with a model matrix to find the binding association constant and then apply least-squares procedures to a linear transformation. The normal equations can be written in matrix form as:(2) M×P=Q where (3) M=[n∑x∑x∑x^2] (4) P=[a/b] (5) Q=[∑y/∑xy] then:(6) Ka=a/b
as §7

[7] = Apparent binding constant by UV-vis spectroscopy, Scott's plot, ligand β-CD; assay type: physicochemical; conditions: aqueous solution; absorption at 355 nm; Scott's equation, 1:1 stoichiometry; OxyCl 0.068 mM, ligand 0.068 to 10 mM
Procedure: as §5, §6, §7

Structure (SMILES)	increase of half-life in aqueous solutions by β-CD [1]	k0, intrinsic rate constant of degradation of the free polymorph [2]	t90, time of 10% degradation of the drug ([2]; PBS)	half-life at 30 µg/mL ([2]; PBS, pH 7.4, PBS, read-out: t50, half-life (converted))	t50, half-life [3]	t90, time of 10% degradation of the drug [3]	k0, intrinsic rate constant of degradation of the free polymorph [3]	Apparent binding constants Ka, ligand ASP [4]	Apparent binding constants Ka, ligand HIS [5]	Apparent binding constants Ka, ligand NAC [6]	Apparent binding constants Ka, ligand β-CD [7]	t50, half-life ([2]; PBS)	half-life at 30 µg/mL ([3]; pH 4, aqueous solution, read-out: t50, half-life (converted))
NS(=O)(=O)c1cc2c(cc1Cl)NCNS2(=O)=O [hydrochlorothiazide]	~28 fold												
CN(C)[C@@H]1C(O)=C(C(N)=O)C(=O)[C@@]2(O)C(O)=C3C(=O)c4c(O)cccc4[C@@](C)(O)[C@H]3[C@H](O)[C@@H]12 [OxyCl-I, Oxytetracycline hydrochloride]		0.009 h⁻¹	12 h	81 h	68 h	10 h	0.0102 h⁻¹	34,645 M^−1	224 M⁻¹	2042 M⁻¹	3761 M⁻¹		
CN(C)[C@@H]1C(O)=C(C(N)=O)C(=O)[C@@]2(O)C(O)=C3C(=O)c4c(O)cccc4[C@@](C)(O)[C@H]3[C@H](O)[C@@H]12 [OxyCl-III, Oxytetracycline hydrochloride]		0.007 h⁻¹	15 h			9 h	0.0116 h⁻¹	1771 M⁻¹	8247 M⁻¹	3897 M⁻¹	3607 M⁻¹	102 h	60 h
CN(C)[C@@H]1C(O)=C(C(N)=O)C(=O)[C@@]2(O)C(O)=C3C(=O)c4c(O)cccc4[C@@](C)(O)[C@H]3[C@H](O)[C@@H]12 [OxyCl-II, Oxytetracycline hydrochloride]		0.005 h⁻¹	21 h		57 h	9 h	0.0121 h⁻¹	3063 M⁻¹	323 M⁻¹	4582 M⁻¹	15,425 M^−1	139 h	
